According to US4650801A, “Anti-cancer compositions for delivering 5-fluorouracil” (Taiho Pharmaceutical Company, Ltd., priority 1978, dated 1987):
Several values for one entry are separate records, joined by “and”; a condition that tells them apart may be missing. Equal values may be shown once. Read-outs that look alike come from different tables or passages of the source. Values belong to the compound of their own block, whether it stands above or below them.

Tests used:
AH 130 tumor = conditions: rat, in vivo
Method: ^3H-FT- 207(300 μ Ci/Kg) with cytosine were suspended in 5% acasia solution and administered orally to AH 130 bearing rats through a stomach tube, each of 3 rats/group. […] The rat were sacrified at various periods, the tumors were removed and used for analysis. Tumor were homogenized in a equal volume of saline, 1.0 ml of each sample was suspended in 7 volumes of cold methanol and centrifuged at 3000 rpm for 10 min. The precipitate was washed twice with 2 volumes of cold methanol and the mixture was centrifuged. The supernatant was combined with first supernatant and dried under nitrogen. […] Samples were mixed with 10 ml of scintillator containing 4 g of 2,5-diphenyloxazole, 0.4 g of 1,4-bis-[2-(4-methyl-5-phenyloxazolyl)]benzene and 100 g of naphthalene per liter of solvent composed of dioxane: toluene: ethylcellosolve=15:3:2 (v/v/v), and the radio activity was measured with Aloka LSC 673 liquid scintillation spectrometor.

[1] = cited from earlier work
[2] = oral anti-cancer agent; cited from earlier work
sarcoma 180 = assay: Anti-cancer effect on subcutaneously transplanted sarcoma 180 in mice; type: in vivo, mouse
Method: The anti-cancer compositions of this invention are tested in mice by the following methods to determine acute toxicity, anti-cancer effect and therapeutic index
Tissues of sarcoma 180, 2×10^6, are subcutaneously transplanted in the back of male mice of ICR strain (6 mice in each group). A 5-fluorouracil (a) and uracil derivative (b) in the proportions listed in Tables 1-16 are suspended in a 5% solution of gum arabic to prepare a suspension. Twenty-four hours after the transplantation and during the following seven consecutive days the suspension is orally given to the animal once every day. On the 10th day after the transplantation, the tumor is removed from the body and weighed to calculate the average weight (T) of the tumors in the group to which the composition has been given and the corresponding weight (C) in the control group to determine the ratio T/C.

SMILES: Nc1ccn([C@H]2C[C@H](O)[C@@H](CO)O2)c(=O)n1 [2'-Deoxycytidine]
- Concentration of 5-FU in cancer tissues (AH 130 tumor; 60 min): 0 ng/mL
- Concentration of 5-FU in cancer tissues (AH 130 tumor; 120 min): 0 ng/mL
- Concentration of 5-FU in cancer tissues (AH 130 tumor; 240 min): 0 ng/mL
- Concentration of 5-FU in cancer tissues (AH 130 tumor; 480 min): 0 ng/mL

SMILES: O=c1[nH]c(=O)n(C2CCCO2)cc1F (stereo not drawn) [Compound 5, 1-(2-Tetrahydrofuryl)-5-fluorouracil]
- conversion to 5-fluorouracil in vivo [1]: slowly converted to 5-fluorouracil in vivo
- efficacy compared with 5-fluorouracil [2]: somewhat inferior to 5-fluorouracil in efficacy
- ED50 (sarcoma 180; (b) = 1(2-Tetrahydrofuryl)uracil, (b)/(a) mol ratio 1): 99 mg/kg
- ED50 (sarcoma 180; (b) = 1(2-Tetrahydrofuryl)uracil, (b)/(a) mol ratio 2): 38 mg/kg
- ED50 (sarcoma 180; (b) = 1(2-Tetrahydrofuryl)uracil, (b)/(a) mol ratio 10): 34 mg/kg
- ED50 (sarcoma 180; (b) = 1Acetyluracil, (b)/(a) mol ratio 1): 49 mg/kg
- ED50 (sarcoma 180; (b) = 1Acetyluracil, (b)/(a) mol ratio 2): 31 mg/kg
- ED50 (sarcoma 180; (b) = 1Acetyluracil, (b)/(a) mol ratio 5): 16 mg/kg
- ED50 (sarcoma 180; (b) = 1Cyclohexylcarbamoyluracil, (b)/(a) mol ratio 0.5): 113 mg/kg
- ED50 (sarcoma 180; (b) = 1Cyclohexylcarbamoyluracil, (b)/(a) mol ratio 2): 55 mg/kg
- ED50 (sarcoma 180; (b) = 1Cyclohexylcarbamoyluracil, (b)/(a) mol ratio 5): 36 mg/kg
- ED50 (sarcoma 180; (b) = 1n-Hexylcarbamoyluracil, (b)/(a) mol ratio 0.5): 112 mg/kg
- ED50 (sarcoma 180; (b) = 1n-Hexylcarbamoyluracil, (b)/(a) mol ratio 2): 52 mg/kg
- ED50 (sarcoma 180; (b) = 1n-Hexylcarbamoyluracil, (b)/(a) mol ratio 10): 43 mg/kg
- ED50 (sarcoma 180; (b) = 2'-Deoxycytidine, (b)/(a) mol ratio 1): 102 mg/kg
- ED50 (sarcoma 180; (b) = 2'-Deoxycytidine, (b)/(a) mol ratio 2): 69 mg/kg
- ED50 (sarcoma 180; (b) = 2'-Deoxycytidine, (b)/(a) mol ratio 20): 39 mg/kg
- ED50 (sarcoma 180; (b) = 2'-Deoxyuridine, (b)/(a) mol ratio 0.5): 82 mg/kg
- ED50 (sarcoma 180; (b) = 2'-Deoxyuridine, (b)/(a) mol ratio 2): 37 mg/kg
- ED50 (sarcoma 180; (b) = 2'-Deoxyuridine, (b)/(a) mol ratio 10): 28 mg/kg
- ED50 (sarcoma 180; (b) = 3Benzoyluracil, (b)/(a) mol ratio 1): 98 mg/kg
- ED50 (sarcoma 180; (b) = 3Benzoyluracil, (b)/(a) mol ratio 2): 37 mg/kg
- ED50 (sarcoma 180; (b) = 3Benzoyluracil, (b)/(a) mol ratio 10): 30 mg/kg
- ED50 (sarcoma 180; (b) = 5Bromo-2'-deoxyuridine, (b)/(a) mol ratio 1): 54 mg/kg
- ED50 (sarcoma 180; (b) = 5Bromo-2'-deoxyuridine, (b)/(a) mol ratio 2): 24 mg/kg
- ED50 (sarcoma 180; (b) = 5Bromo-2'-deoxyuridine, (b)/(a) mol ratio 10): 17 mg/kg
- ED50 (sarcoma 180; (b) = 5Bromouracil, (b)/(a) mol ratio 1): 55 mg/kg
- ED50 (sarcoma 180; (b) = 5Bromouracil, (b)/(a) mol ratio 2): 26 mg/kg
- ED50 (sarcoma 180; (b) = 5Bromouracil, (b)/(a) mol ratio 10): 23 mg/kg
- ED50 (sarcoma 180; (b) = 5Iodouracil, (b)/(a) mol ratio 1): 32 mg/kg
- ED50 (sarcoma 180; (b) = 5Iodouracil, (b)/(a) mol ratio 2): 17 mg/kg
- ED50 (sarcoma 180; (b) = 5Iodouracil, (b)/(a) mol ratio 5): 12 mg/kg
- ED50 (sarcoma 180; (b) = Cytidine, (b)/(a) mol ratio 1): 98 mg/kg
- ED50 (sarcoma 180; (b) = Cytidine, (b)/(a) mol ratio 2): 70 mg/kg
- ED50 (sarcoma 180; (b) = Cytidine, (b)/(a) mol ratio 20): 28 mg/kg
- ED50 (sarcoma 180; (b) = Cytosine, (b)/(a) mol ratio 1): 108 mg/kg
- ED50 (sarcoma 180; (b) = Cytosine, (b)/(a) mol ratio 2): 66 mg/kg
- ED50 (sarcoma 180; (b) = Cytosine, (b)/(a) mol ratio 20): 27 mg/kg
- ED50 (sarcoma 180; (b) = Orotic acid, (b)/(a) mol ratio 1): 112 mg/kg
- ED50 (sarcoma 180; (b) = Orotic acid, (b)/(a) mol ratio 2): 72 mg/kg
- ED50 (sarcoma 180; (b) = Orotic acid, (b)/(a) mol ratio 20): 59 mg/kg
- ED50 (sarcoma 180; (b) = Thymidine, (b)/(a) mol ratio 2): 94 mg/kg
- ED50 (sarcoma 180; (b) = Thymidine, (b)/(a) mol ratio 5): 42 mg/kg
- ED50 (sarcoma 180; (b) = Thymidine, (b)/(a) mol ratio 10): 40 mg/kg
- ED50 (sarcoma 180; (b) = Thymine, (b)/(a) mol ratio 1): 42 mg/kg
- ED50 (sarcoma 180; (b) = Thymine, (b)/(a) mol ratio 2): 28 mg/kg
- ED50 (sarcoma 180; (b) = Thymine, (b)/(a) mol ratio 10): 14 mg/kg
- ED50 (sarcoma 180; (b) = Uridine, (b)/(a) mol ratio 0.5): 129 mg/kg
- ED50 (sarcoma 180; (b) = Uridine, (b)/(a) mol ratio 2): 55 mg/kg
- ED50 (sarcoma 180; (b) = Uridine, (b)/(a) mol ratio 10): 36 mg/kg
- ED50 (sarcoma 180; (b)/(a) mol ratio 0 (alone), oral, 50% cancer inhibition (T/C)): 140 mg/kg and 134 mg/kg

- Concentration of 5-FU in cancer tissues (AH 130 tumor; 60 min): 0 ng/mL
- Concentration of 5-FU in cancer tissues (AH 130 tumor; 120 min): 0 ng/mL
- Concentration of 5-FU in cancer tissues (AH 130 tumor; 240 min): 0 ng/mL
- Concentration of 5-FU in cancer tissues (AH 130 tumor; 480 min): 0 ng/mL
SMILES: Nc1cc[nH]c(=O)n1 [Cytosine]

- Concentration of 5-FU in cancer tissues (AH 130 tumor; 60 min): 33 ng/mL
- Concentration of 5-FU in cancer tissues (AH 130 tumor; 120 min): 24 ng/mL
- Concentration of 5-FU in cancer tissues (AH 130 tumor; 240 min): 11 ng/mL
- Concentration of 5-FU in cancer tissues (AH 130 tumor; 480 min): 8 ng/mL
SMILES: O=c1c(F)cn(C2CCCO2)c(=O)n1C1CCCO1 (stereo not drawn) [FD-1]
